These results are taken from patent US10259809B2, “Fluorinated imidazo[4,5-C]quinoline derivatives as inhibitors of bromodomain containing proteins” (Trillium Therapeutics Inc., priority 2015, dated 2019).

The target of one data set is T1, BRD4-FL (Homo sapiens, UniProt O60885).
T1 construct: BRD4-FL: Full length BRD4
In words: BET Bromodomain AlphaScreen assay (Example 9), BRD4-FL. It is filed as binding. The method, then:
(§1) The reader assay was a binding assay using the AlphaScreen technology fluorescence energy resonance transfer (FRET) assay. The biotinylated peptide binding to the reader domain of His-tagged protein is monitored by the singlet oxygen transfer from the Streptavidin-coated donor beads to the AlphaScreen Ni-chelate acceptor beads.
(§2) Reaction buffer: 50 mM Hepes, pH7.5, 100 mM NaCl, 0.05% CHAPS, 0.1% BSA, and 1% DMSO (Buffer and DMSO concentration may be different for different reader).
(§3) Biotin-peptide; sequences were different for different targets.
(§4) Reaction Procedure: • 1. Deliver 4× BRD in wells of reaction plate except No BRD control wells. Add buffer instead. • 2. Deliver compounds in 100% DMSO into the BRD mixture by Acoustic technology (Echo550; nanoliter range). Spin down and pre-incubation for 30 min. • 3. Deliver 4× Ligand. Spin and shake. • 4. Incubate for 30 min at room temperature with gentle shaking. • 5. Deliver 4× donor beads. Spin and shake. • 6. Deliver 4× acceptor beads. Spin and shake. Then gentle shaking in the dark for 60 min. • 7.

The target of a further data set is T2, BRD3-1 (Homo sapiens, UniProt Q15059).
T2 construct: BRD3-1: Domain 1 of BRD3
T2 sequence (Q15059 34-140 limits assumed): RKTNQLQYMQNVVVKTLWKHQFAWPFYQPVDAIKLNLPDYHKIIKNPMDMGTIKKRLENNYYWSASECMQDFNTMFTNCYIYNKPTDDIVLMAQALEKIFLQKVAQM
In words: BET Bromodomain AlphaScreen assay (Example 9), BRD3-1. It is filed as binding. The method, then:
as §1, §2, §3, §4
In general terms: Bead proximity is the source of the signal in Alpha formats.

The next data set addresses T3, BRD2-1 (Homo sapiens, UniProt P25440).
T3 construct: BRD2-1: Domain 1 of BRD2
In words: BET Bromodomain AlphaScreen assay (Example 9), BRD2-1. It is filed as binding. The method, then: as §1, §2, §3, §4

Data set [1] in a line: Liver microsome stability, human. In kind it is in vitro ADME. The conditions noted are these: pooled human liver microsomes (50 donors), 1 μM compound, 0.5 mg/ml microsomes, 37° C., read-out: % recovery Human Liver Microsomes (HLM) (30 min). The method, then: (§5) Working stocks were initially diluted to a concentration of 40.0 μM in 0.1 M potassium phosphate buffer before addition to the reaction vials. Pooled mouse (CD-1, male) or human (50 donors) liver microsomes were utilized at a final concentration of 0.5 mg/ml. Duplicate wells were used for each time point (0 and 30 minutes). Reactions were carried out at 37° C. in a shaker, and the final concentration of DMSO was kept constant at 0.01%. The final volume for each reaction was 100 μL, which includes the addition of an NADPH-Regeneration solution (NRS) mix. This NRS mix was comprised of glucose 6-phosphate dehydrogenase (0.4 U/mL), NADP+ (1.3 mM), MgCl2 (3.3 mM), and glucose 6-phosphate (3.3 mM) in assay mixtures. Upon completion of the 30 minute time point, reactions were terminated by the addition of 1.5-volumes (150 μL) of ice-cold, acetonitrile with 0.5% formic acid and internal standard. Samples were then centrifuged at 4,000 rpm for 10 minutes to remove debris and precipitated protein. Approximately 150 μL of supernatant was subsequently transferred to a new 96 well microplate for LC/MS analysis.
(§6) Narrow-window mass extraction LC/MS analysis was performed for all samples using a Waters Xevo quadrupole time-of-flight (QTof) mass spectrometer and an ACQUITY UPLC system, to determine relative peak areas of parent compound.
(Microsomes from liver hold many membrane-bound enzymes, among them those of drug oxidation.)

A short description of data set [2]: Liver microsome stability, mouse. In kind it is in vitro ADME, mouse (CD-1. The conditions noted are these: male, CD-1, mouse, pooled mouse liver microsomes, 1 μM compound, 0.5 mg/ml microsomes, 37° C., read-out: % recovery Mouse Liver Microsomes (MLM) (30 min). The method, then:
as §5, §6

The target in data set [3] is T4, BRD4-FL: Full length BRD4 (Homo sapiens, UniProt O60885).
T4 construct: BRD4-FL: Full length BRD4
Kind of data set: Bromodomain binding assay (Example 6), BRD4-FL. The method, then: (§7) The binding of the compounds of the application to bromodomains BRD2, BRD3 and BRD4 was assessed using a time resolved fluorescent resonance energy transfer binding assay (Alpha Screen Technology), that measures the binding of an acetylated histone peptide to the bromodomain protein.
(§8) The bromodomain protein, histone peptide and a variable concentration of test compound were incubated together to reach thermodynamic equilibrium.

A further data set concerns the target T5, BRD3-1: Domain 1 of BRD3 (Homo sapiens, UniProt Q15059).
T5 construct: BRD3-1: Domain 1 of BRD3
Kind of data set: Bromodomain binding assay (Example 6), BRD3-1. The method, then:
as §7, §8

For the next data set, the target named is T6, BRD2-1: Domain 1 of BRD2 (Homo sapiens, UniProt P25440).
T6 construct: BRD2-1: Domain 1 of BRD2
T6 sequence (P25440 74-180 limits assumed): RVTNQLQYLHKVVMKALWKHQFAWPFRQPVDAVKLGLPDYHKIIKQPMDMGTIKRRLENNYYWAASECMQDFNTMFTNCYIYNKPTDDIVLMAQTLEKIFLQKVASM
In words: Bromodomain binding assay (Example 6), BRD2-1. The method, then:
as §7, §8

The test system of data set [4] is MM.1S subcutaneous human multiple myeloma xenograft. In words: MM.1S subcutaneous human multiple myeloma xenograft model, efficacy. It is filed as in vivo, NOD SCID mice. The method, then:
• Species & Strain: NOD SCID mice • Age: 7-8 week • Total Number: 50 mice plus 40% spare • Sex: Female • Body Weight: 18 to 22 g Animal Maintenance
Groups and treatments started when the mean tumor volume reached about 100-150 mm^3. Based on the tumor volume, mice were randomly assigned to respective groups using a computer-generated randomization procedure.
Each mouse was inoculated subcutaneously on the right flank with MM.1S tumor cells (5×10^6) in 0.1 ml of RPMI-1640 without serum (mixed matrigel) for tumor development. The treatment started when the mean tumor size reached approximately 100-150 mm^3. Mice were then randomized into groups.
The measurement of tumor size was conducted twice weekly with a caliper and the tumor volume (mm^3) was estimated using the formula: TV=a×b^2/2, where “a” and “b” are long and short diameters of a tumor, respectively. The TVs were used for calculation of the tumor growth inhibition (TGI, an indicator of antitumor effectiveness) value using the formula: TGI=(1−T/C)×100%, where “T” and “C” is the mean relative volumes (% tumor growth) of the tumors in the treated and the control groups, respectively, on a given day after tumor inoculation. The experiment terminated when the mean tumor volume exceeded 2000 mm^3 or severe body weight loss was observed.
A general note: In xenograft studies the graft and the host belong to different species.

Where a name gives a salt, the structure may show the parent alone.

T5 sequence (Q15059 34-140 limits assumed): as the sequence (Q15059 34-140 limits assumed) above
T3 sequence (P25440 74-180 limits assumed): as the sequence (P25440 74-180 limits assumed) above

What is called EC50 is the concentration needed to bring the measured effect to its halfway point. High values mean a need for much substance, low ones an effect from little substance. Regarding `COc1cc2c(cc1-c1c(C)noc1C)ncc1nc(C3CCOCC3)n([C@H]3CC[C@H](OC(F)F)CC3)c12` [2(r)], the half-maximal effective concentration (EC50) was found to be 406 nM on BRD4-FL, 104 nM at BRD3-1 and 281 nM at BRD2-1.

As for `CNCc1nc2cnc3cc(-c4c(C)noc4C)c(OC)cc3c2n1[C@H](C)COC(F)F` [3(g)], the recovery at 30 min, 1 μM is 58.5% in data set [1] and 0.1% in [2].

On to `COc1cc2c(cc1-c1c(C)noc1C)ncc1nc(CN3CCC(F)(F)CC3)n([C@H](C)COC(F)F)c12` [3(f), 4-[1-[(1R)-2-(difluoromethoxy)-1-methyl-ethyl]-2-[(4,4-difluoro-1-piperidyl)methyl]-8-methoxy-imidazo[4,5-c]quinolin-7-yl]-3,5-dimethyl-isoxazole], for which the recovery at 30 min, 1 μM in [1] turned out to be 0.6%; in [2], 2.6%.

Turning to `COc1cc2c(cc1-c1c(C)noc1C)ncc1nc(CN3CCC(F)(F)C3)n([C@H](C)COC(F)F)c12` [3(i)], the recovery at 30 min, 1 μM in [1] was found to be 7.4%; in [2], 10.4%.

The term IC50 denotes the point on the concentration scale where inhibition reaches its midpoint. Turning to `COc1cc2c(cc1-c1c(C)noc1C)ncc1nc(C3CCC(F)(F)CC3)n([C@H](C)COC(F)F)c12` [2(h), 4-[2-(4,4-difluorocyclohexyl)-1-[(1R)-2-(difluoromethoxy)-1-methyl-ethyl]-8-methoxy-imidazo[4,5-c]quinolin-7-yl]-3,5-dimethyl-isoxazole], the 50% inhibitory concentration (IC50) in data set [3] worked out at 21 nM; at BRD3-1: Domain 1 of BRD3, 31 nM; on BRD2-1: Domain 1 of BRD2 it was 47 nM. For the same compound, the recovery at 30 min, 1 μM in data set [1] amounted to 62.3%; in [2], 35.2%. Moreover, the EC50 came to 46.2 nM at BRD4-FL, 6.96 nM at BRD3-1 and 27.3 nM on BRD2-1.

For the compound `COc1cc2c(cc1-c1c(C)noc1C)ncc1nc(C3CCOCC3)n(CCOC(F)F)c12` [2(n), 4-[1-[2-(difluoromethoxy)ethyl]-8-methoxy-2-tetrahydropyran-4-yl-imidazo[4,5-c]quinolin-7-yl]-3,5-dimethyl-isoxazole], the recovery at 30 min, 1 μM was found to be 58.1% in data set [1] and 74.8% in data set [2].

`COc1cc2c(cc1-c1c(C)noc1C)ncc1nc(CN(C)C)n([C@H](C)COC(F)F)c12` [3(b).HCl]: the EC50 stood at 31.7 nM at BRD4-FL, 17.6 nM at BRD3-1 and 32.3 nM on BRD2-1.

On to `COc1cc2c(cc1-c1c(C)noc1C)ncc1nc(CN(C)C)n([C@H](C)COC(F)F)c12` [3(b), 1-[1-[(1R)-2-(difluoromethoxy)-1-methyl-ethyl]-7-(3,5-dimethylisoxazol-4-yl)-8-methoxy-imidazo[4,5-c]quinolin-2-yl]-N,N-dimethyl-methanamine], for which the IC50 in data set [3] amounted to 32 nM; on BRD3-1: Domain 1 of BRD3, 18 nM; at BRD2-1: Domain 1 of BRD2 it was 32 nM. The recovery at 30 min, 1 μM in data set [1] was 13.7%; in [2], 0.5%.

With `COc1cc2c(cc1-c1c(C)noc1C)ncc1nc(C3CCOCC3)n([C@@H](C)COC(F)F)c12` [2(a), 4-[1-[(1S)-2-(difluoromethoxy)-1-methyl-ethyl]-8-methoxy-2-tetrahydropyran-4-yl-imidazo[4,5-c]quinolin-7-yl]-3,5-dimethyl-isoxazole], the half-maximal inhibitory concentration (IC50) came to 40 nM in [3], 44 nM at BRD3-1: Domain 1 of BRD3 and 63 nM at BRD2-1: Domain 1 of BRD2. Besides, the EC50 at BRD4-FL amounted to 40.4 nM; on BRD3-1 it was 43.8 nM; at BRD2-1 it was 63.4 nM.

For `COc1cc2c(cc1-c1c(C)noc1C)ncc1nc(C3CCOCC3)n([C@H](C)COC(F)F)c12` [2(g), 4-[1-[(1R)-2-(difluoromethoxy)-1-methyl-ethyl]-8-methoxy-2-tetrahydropyran-4-yl-imidazo[4,5-c]quinolin-7-yl]-3,5-dimethyl-isoxazole], the tumor volume entry in data set [4] (10 mg/kg, 30 mg/kg and 60 mg/kg PO QD × 21, 21 days post administration, dose dependent) is given as “significantly reduced the tumor volume”. Besides, the “tumor volume compared with carfilzomib (CFZ)” value in data set [4] (30 mg/kg and 60 mg/kg PO, 21 days post administration, CFZ 5 mg/kg IV) is “reduced the tumor volume to a greater extent than carfilzomib”. For the same compound, the antitumor activity result in [4] (low-dose 10 mg/kg PO) is “moderate antitumor activity”. For the same compound, the 50% inhibitory concentration (IC50) in data set [3] is 14 nM; on BRD3-1: Domain 1 of BRD3, 17 nM; at BRD2-1: Domain 1 of BRD2, 24 nM. Also, the recovery at 30 min, 1 μM amounted to 43% in data set [1] and 55.5% in data set [2]. Further, the results for the EC50 at BRD4-FL, on BRD3-1 and on BRD2-1 were 7.17 nM, 2.76 nM and 6.89 nM, respectively.

On to `COc1cc2c(cc1-c1c(C)noc1C)ncc1nc(CN3CCOCC3)n([C@H](C)COC(F)F)c12` [3(a), 4-[[1-[(1R)-2-(difluoromethoxy)-1-methyl-ethyl]-7-(3,5-dimethylisoxazol-4-yl)-8-methoxy-imidazo[4,5-c]quinolin-2-yl]methyl]morpholine trihydrochloride], for which the values for the IC50 (in [3]; at BRD3-1: Domain 1 of BRD3; at BRD2-1: Domain 1 of BRD2) were 10 nM, 10 nM and 19 nM, respectively. Moreover, the recovery at 30 min, 1 μM in data set [1] is 1.9%; in data set [2], 3.7%. Also, the EC50 on BRD4-FL was determined as 9.52 nM; on BRD3-1, 10 nM; on BRD2-1, 19.3 nM.

With `COc1cc2c(cc1-c1c(C)noc1C)ncc1nc(C3CCCCC3)n([C@H](C)COC(F)F)c12` [2(j), 4-[2-cyclohexyl-1-[(1R)-2-(difluoromethoxy)-1-methyl-ethyl]-8-methoxy-imidazo[4,5-c]quinolin-7-yl]-3,5-dimethyl-isoxazole], the recovery at 30 min, 1 μM in data set [1] turned out to be 1.5%; in [2], 7%.

As for `COc1cc2c(cc1-c1c(C)noc1C)ncc1nc(CN3CC(F)(F)C3)n([C@H](C)COC(F)F)c12` [3(j)], the recovery at 30 min, 1 μM in [1] turned out to be 6.9%; in data set [2] it was 8%.

Turning to `COc1cc2c(cc1-c1c(C)noc1C)ncc1nc(C3CCCC3)n([C@H](C)COC(F)F)c12` [2(k), 4-[2-cyclopentyl-1-[(1R)-2-(difluoromethoxy)-1-methyl-ethyl]-8-methoxy-imidazo[4,5-c]quinolin-7-yl]-3,5-dimethyl-isoxazole], the recovery at 30 min, 1 μM in [1] was found to be 0.1%; in data set [2], 0.6%.
